Molecules are shown by their SMILES. Counter-ions that a name gives are not always drawn.

One may read the melting point as the temperature, or range, at which the solid turns liquid. For the compound `COc1ccc(S(=O)(=O)N2CCc3cccc(NC(=O)c4cccs4)c32)cc1` [compound 28, Thiophene-2-carboxylic acid [1-(4-methoxy-benzenesulfonyl)-2,3-dihydro-1H-indol-7-yl]-amide], the melting point was in the range of 188 to 189 °C.

Consider `COc1ccc(S(=O)(=O)N2CCc3cccc(NC(=O)c4ccc(F)cc4)c32)cc1` [compound 21, 4-Fluoro-N-[1-(4-methoxy-benzenesulfonyl)-2,3-dihydro-1H-indol-7-yl]-benzamide], for which the melting point is 184 to 185 °C.

`COc1ccc(S(=O)(=O)N2CCc3cccc(NC(C)=O)c32)cc1` [compound 35, N-[1-(4-Methoxy-benzenesulfonyl)-2,3-dihydro-1H-indol-7-yl]acetamide] gave a melting point of 154 to 155 °C. The result for `COc1ccc(S(=O)(=O)N2CCc3cccc(NC(=O)c4ccccc4)c32)cc1` [compound 20, N-[1-(4-Methoxy-benzenesulfonyl)-2,3-dihydro-1H-indol-7-yl]-benzamide] reads 205 to 206 °C; that for `COc1ccc(S(=O)(=O)N2CCc3cccc(NC(=O)c4ccco4)c32)cc1` [compound 27, Furan-2-carboxylic acid [1-(4-methoxy-benzenesulfonyl)-2,3-dihydro-1H-indol-7-yl]-amide], 163 to 164 °C; that for `COc1ccc(S(=O)(=O)N2CCc3cccc(NC(=O)Oc4ccccc4)c32)cc1`, 164 to 166 °C.

For the compound `COc1ccc(S(=O)(=O)N2CCc3cccc(NS(=O)(=O)c4ccccc4)c32)cc1` [compound 29, N-[1-(4-Methoxy-benzenesulfonyl)-2,3-dihydro-1H-indol-7-yl]-benzenesulfonamide], the melting point lay within 143 to 145 °C. Turning to `COc1ccc(S(=O)(=O)N2CCc3cc(Br)cc(NC(=O)c4ccncc4)c32)cc1` [compound 37, N-[5-Bromo-1-(4-methoxy-benzenesulfonyl)-2,3-dihydro-1H-indol-7-yl]-isonicotinamide], the melting point fell in the range of 191 to 192 °C. Take `COc1ccc(S(=O)(=O)N2CCc3cccc(NS(=O)(=O)c4ccc(F)cc4)c32)cc1` [compound 31, 4-Fluoro-N-[1-(4-methoxy-benzenesulfonyl)-2,3-dihydro-1H-indol-7-yl]-benzenesulfonamide]: the melting point fell in the range of 104 to 105 °C.

The compound `COc1ccc(S(=O)(=O)N2CCc3cccc(NC(=O)c4ccc(C#N)cc4)c32)cc1` [compound 23, 4-Cyano-N-[1-(4-methoxy-benzenesulfonyl)-2,3-dihydro-1H-indol-7-yl]-benzamide] showed a melting point of 179 to 180 °C. `COc1ccc(S(=O)(=O)N2CCc3cccc(NC(=O)N(C)c4ccccc4)c32)cc1` [compound 33, 3-[1-(4-Methoxy-benzenesulfonyl)-2,3-dihydro-1H-indol-7-yl]-1-methyl-1-phenyl-urea] had a melting point of 199 to 201 °C.

In turn, `COc1ccc(S(=O)(=O)N2CCc3cccc(NC(=O)c4ccc([N+](=O)[O-])cc4)c32)cc1` [compound 22, N-[1-(4-Methoxy-benzenesulfonyl)-2,3-dihydro-1H-indol-7-yl]-4-nitro-benzamide] had a melting point of 151 to 152 °C. The result for `COc1ccc(S(=O)(=O)N2CCc3cccc(NC(=O)c4ccncc4)c32)cc1` (as salt: HCl) [compound 26, N-[1-(4-Methoxy-benzenesulfonyl)-2,3-dihydro-1H-indol-7-yl]-isonicotin amide] reads 219 to 220 °C; that for `COc1ccc(S(=O)(=O)N2CCc3cc(Br)cc(NC(=O)c4ccco4)c32)cc1` [compound 38, Furan-2-carboxylic acid [5-bromo-1-(4-methoxy-benzenesulfonyl) -2,3-dihydro-1H-indol-7-yl]-amide], 170 to 171 °C; that for `COc1ccc(S(=O)(=O)N2CCc3cccc(NCc4ccccc4)c32)cc1` [compound 34, Benzyl-[1-(4-methoxy-benzenesulfonyl)-2,3-dihydro-1H-indol-7-yl]-amine], 162 to 163 °C.

Values taken from patent publication US7741495B2, “Indoline-sulfonamides compounds” (Taipei Medical University, priority 2006, dated 2010).
